Consider three compounds from patent EP4782466A1, “FUSION PROTEIN FOR INACTIVATING CORONAVIRUS AND USE THEREOF” (priority 2023, dated 2025).

In assay [1] the test system is SARS-CoV-2 prototype pseudovirus.
Assay [2] deals with SARS-CoV-2 Alpha pseudovirus.
Assay [3] relates to SARS-CoV-2 Beta pseudovirus.
The subject of assay [4] is SARS-CoV-2 Gamma pseudovirus.
For assay [5], the system named is SARS-CoV-2 Delta pseudovirus.
The test system of assay [6] is SARS-CoV-2 Lambda pseudovirus.
Assay [7] deals with SARS-CoV-2 BA.1 pseudovirus.
Assay [8] has as its system SARS-CoV-2 BA.2 pseudovirus.
Assay [9] relates to SARS-CoV-2 BA.2.2 pseudovirus.
In assay [10] the test system is SARS-CoV-2 BA.2.9 pseudovirus.
For assay [11], the system named is SARS-CoV-2 BA.2.12.1 pseudovirus.
The test system of assay [12] is SARS-CoV-2 BA.2.75 pseudovirus.
Assay [13] deals with SARS-CoV-2 BA.3 pseudovirus.
For assay [14], the system named is SARS-CoV-2 BA.4.6 pseudovirus.
Assay [15] relates to SARS-CoV-2 BA.5 pseudovirus.
In assay [16] the test system is SARS-CoV-2 BF.7 pseudovirus.
Assay [17] has as its system SARS-CoV-2 XBB pseudovirus.
The subject of assay [18] is SARS-CoV-2 BQ.1 pseudovirus.
Assay [19] deals with coronavirus pseudoviruses such as 2019-nCoV. Particulars: verified in Chinese Patent Application No. CN202180001804.1; cited from earlier work.

What is called IC50 is the concentration that inhibits the measured activity by half. High values mean weaker potency, low ones greater potency. As to `CC[C@H](C)[C@H](NC(=O)[C@H](C)NC(=O)[C@H](CCC(=O)O)NC(=O)[C@H](CCC(=O)O)NC(=O)[C@H](CC(C)C)NC(=O)[C@H](CCCCN)NC(=O)[C@H](CCCCN)NC(=O)[C@H](CCSC)NC(=O)[C@H](CCC(=O)O)NC(=O)[C@H](Cc1ccc(O)cc1)NC(=O)[C@H](CCC(=O)O)NC(=O)[C@H](CC(C)C)NC(=O)[C@H](CC(=O)O)NC(=O)[C@H](CC(C)C)NC(=O)[C@H](Cc1ccccc1)NC(=O)[C@@H](NC(=O)[C@@H](NC(=O)[C@H](CC(N)=O)NC(=O)[C@@H](NC(=O)[C@H](CCC(N)=O)NC(=O)[C@H](CC(=O)O)NC(=O)[C@H](CC(C)C)NC(=O)[C@@H](N)CO)[C@@H](C)CC)C(C)C)[C@@H](C)O)C(=O)N[C@@H](CCCCN)C(=O)N[C@@H](CCCCN)C(=O)N[C@@H](CC(C)C)C(=O)N[C@@H](CCC(=O)O)C(=O)N[C@@H](CCC(=O)O)C(=O)N[C@@H](CO)C(=O)N[C@@H](Cc1ccc(O)cc1)C(=O)N[C@H](C(=O)N[C@@H](CC(=O)O)C(=O)N[C@@H](CC(C)C)C(=O)N[C@@H](CCCCN)C(=O)N[C@@H](CCC(=O)O)C(=O)N[C@@H](CC(C)C)C(=O)O)[C@@H](C)CC` [EK1], the IC50 is 186 nM in assay [1]; 268 nM in assay [2]; 257 nM in [3]; 277 nM in [4]; 150 nM in [5]; 995 nM in assay [6]. Further, the concentration for half-maximal inhibition (IC50) in assay [7] was 70.5 nM; in assay [8] it was 297 nM; in assay [9], 162 nM; in assay [10], 199 nM; in assay [11], 342 nM; in [12], 331 nM. Besides, the IC50 in assay [13] was 136 nM; in assay [14] it was 473 nM; in assay [15] it was 568 nM; in assay [16], 584 nM; in [17], 233 nM; in assay [18] it was 136 nM. Also, the IC50 in the assay with SARS-CoV pseudovirus was 841 nM; in the assay on HCoV-NL63 pseudovirus it was 1070 nM; with WIV1 pseudovirus, 2450 nM; in the assay with Rs3367 pseudovirus, 1340 nM.

For the compound “SLDQINVTFLDLEYEMKKLEEAIKKLEESYIDLKEL-GSG-DPEG4-K(palmitic) [EK1-palmitic]”, the “inhibitory activity against coronavirus pseudoviruses” value in [19] is “possess inhibitory activity”.

On to “SLDQINVTFLDLEYEMKKLEEAIKKLEESYIDLKEL-GSGSG-DPEG4-C(cholesterol) [EK1-chol]”, for which the “inhibitory activity against coronavirus pseudoviruses” value in assay [19] is recorded as “possess inhibitory activity”.
